Patent US20220017501A1, “MICROBIOCIDAL THIAZOLE DERIVATIVES” (SYNGENTA PARTICIPATIONS AG, priority 2018, published 2022)

Columns and labels:
[1] = system: Pyrenophora teres; assay: Pyrenophora teres / barley / leaf disc preventative (net blotch); assay type: in vivo; conditions: foliar, barley leaf segments, compared to untreated control
Description: Example B14: Pyrenophora Teres/Barley/Leaf Disc Preventative (Net Blotch) Barley leaf segments cv. Hasso are placed on agar in a multiwell plate (24-well format) and sprayed with the formulated test compound diluted in water. The leaf […] inoculated with a spore suspension of the fungus 2 days after application. The inoculated leaf segments are incubated at 20° C. and 65% rh under a light regime of 12 h light/12 h darkness in a climate cabinet and the activity of a compound is assessed as disease control compared to untreated when an appropriate level of disease damage appears in untreated check leaf segments (5-7 days after application). […] […].23.

[2] = system: Blumeria graminis f. sp. tritici (Erysiphe graminis f. sp. tritici); assay: Blumeria graminis f. sp. tritici / wheat / leaf disc preventative (powdery mildew on wheat); assay type: in vivo; conditions: foliar, wheat leaf segments, compared to untreated control
Description: Example B4: Blumeria Graminis f. sp. Tritici (Erysiphe Graminis f. sp. Tritici)/Wheat/Leaf Disc Preventative (Powdery Mildew on Wheat) Wheat leaf segments cv. Kanzler are placed on agar in a multiwell plate (24-well format) and sprayed with the formulated test compound diluted in water. The leaf disks are inoculated by shaking powdery mildew infected plants above the test plates 1 day after application. The inoculated leaf disks are incubated at 20° C. and 60% rh under a light regime of 24 h darkness followed by 12 h light/12 h darkness in a climate chamber and the activity of a compound is assessed as percent disease control compared to untreated when an appropriate level of disease damage appears on untreated check leaf segments (6-8 days after application). […].23.

[3] = system: Monographella nivalis (Microdochium nivale); assay: Monographella nivalis (Microdochium nivale) / liquid culture (foot rot cereals); assay type: cell-based; conditions: growth inhibition photometrically 4-5 days after application, read-out: control of Monographella nivalis
Description: (§1) Example B7: Monographella Nivalis (Microdochium Nivale)/Liquid Culture (Foot Rot Cereals) Conidia of the fungus from cryogenic storage are directly mixed into nutrient broth (PDB potato dextrose broth). After placing a (DMSO) solution of test compound into a microtiter plate (96-well format), the nutrient broth containing the fungal spores is added. The test plates are incubated at 24° C. and the inhibition of growth is determined photometrically 4-5 days after application. […] […].23.

[4] = system: Magnaporthe grisea (Pyricularia oryzae); assay: whole plant or invertebrate; assay type: in vivo; conditions: foliar, read-out: control of Magnaporthe grisea
[5] = system: Mycosphaerella graminicola (Septoria tritici); assay: Mycosphaerella graminicola (Septoria tritici) / liquid culture (Septoria blotch); assay type: cell-based; conditions: Zymoseptoria tritici, growth inhibition photometrically 4-5 days after application, read-out: control of Mycosphaerella graminicola
Description: as §1, with “B16: Mycosphaerella Graminicola (Septoria Tritici)/Liquid” for “B7: Monographella Nivalis (Microdochium Nivale)/Liquid”, “(Septoria Blotch)” for “(Foot Rot Cereals)”

[6] = system: Mycosphaerella arachidis (Cercospora arachidicola); assay: Mycosphaerella arachidis (Cercospora arachidicola) / liquid culture (early leaf spot); assay type: cell-based; conditions: growth inhibition photometrically 4-5 days after application, read-out: control of Mycosphaerella arachidis
Description: as §1, with “B8: Mycosphaerella Arachidis (Cercospora Arachidicola)/Liquid” for “B7: Monographella Nivalis (Microdochium Nivale)/Liquid”, “(Early Leaf Spot)” for “(Foot Rot Cereals)”

[7] = system: Glomerella lagenarium (Colletotrichum lagenarium); assay: Glomerella lagenarium (Colletotrichum lagenarium) / liquid culture (anthracnose); assay type: cell-based; conditions: Colletotrichum orbiculare, growth inhibition photometrically 3-4 days after application, read-out: control of Glomerella lagenarium
Description: Example B3: Glomerella Lagenarium (Colletotrichum Lagenarium)/Liquid Culture (Anthracnose) Conidia of the fungus from cryogenic storage are directly mixed into nutrient broth (PDB potato dextrose broth). After placing a (DMSO) solution of test compound into a microtiter plate (96-well format), the nutrient broth containing the fungal spores is added. The test plates are incubated at 24° C. and the inhibition of growth is measured photometrically 3-4 days after application.

Cc1sc(N(C#N)c2cc(F)nc(F)c2)nc1C(=O)NC1CCC12CCCC2 (stereo not shown) [I.c.23, 2-[cyano-(2,6-difluoro-4-pyridyl)amino]-5-methyl-N-spiro[3.4]octan-3-yl-thiazole-4-carboxamide]
≥ 80%: pest or weed control at 200 ppm [1] | pest or weed control at 200 ppm [2] | inhibition of growth at 20 ppm [3] | pest or weed control at 200 ppm [4] | inhibition of growth at 20 ppm [5] | inhibition of growth at 20 ppm [6] | inhibition of growth at 20 ppm [7]

CCCCCNC(=O)c1nc(N(C#N)c2cc(F)nc(F)c2)sc1C [I.l.23, 2-[cyano-(2,6-difluoro-4-pyridyl)amino]-5-methyl-N-pentyl-thiazole-4-carboxamide]
≥ 80%: pest or weed control at 200 ppm [2] | inhibition of growth at 20 ppm [3] | pest or weed control at 200 ppm [4] | inhibition of growth at 20 ppm [5] | inhibition of growth at 20 ppm [6]

Cc1sc(N(C#N)c2cc(F)cc(F)c2)nc1C(=O)NC1(C)CCCC1 [I.g.08, 2-(N-cyano-3,5-difluoro-anilino)-5-methyl-N-(1-methylcyclopentyl)thiazole-4-carboxamide]
≥ 80%: pest or weed control at 200 ppm [2] | inhibition of growth at 20 ppm [3] | pest or weed control at 200 ppm [4] | inhibition of growth at 20 ppm [6] | inhibition of growth at 20 ppm [7]

Cc1sc(N(C#N)c2cc(F)cc(F)c2)nc1C(=O)NC1CCC1(C)C (stereo not shown) [I.b.08, 2-(N-cyano-3,5-difluoro-anilino)-N-(2,2-dimethylcyclobutyl)-5-methyl-thiazole-4-carboxamide]
≥ 80%: pest or weed control at 200 ppm [2] | inhibition of growth at 20 ppm [3] | pest or weed control at 200 ppm [4] | inhibition of growth at 20 ppm [5] | inhibition of growth at 20 ppm [6] | inhibition of growth at 20 ppm [7]

Cc1sc(N(C#N)c2cc(F)nc(F)c2)nc1C(=O)NC1CCC12CCC2 (stereo not shown) [I.e.23, 2-[cyano-(2,6-difluoro-4-pyridyl)amino]-5-methyl-N-spiro[3.3]heptan-3-yl-thiazole-4-carboxamide]
≥ 80%: pest or weed control at 200 ppm [2] | inhibition of growth at 20 ppm [3] | pest or weed control at 200 ppm [4] | inhibition of growth at 20 ppm [5] | inhibition of growth at 20 ppm [6] | inhibition of growth at 20 ppm [7]

Cc1sc(N(C#N)c2cc(F)nc(F)c2)nc1C(=O)NCC(C)C [I.i.23, 2-[cyano-(2,6-difluoro-4-pyridyl)amino]-N-isobutyl-5-methyl-thiazole-4-carboxamide]
≥ 80%: pest or weed control at 200 ppm [1] | pest or weed control at 200 ppm [2] | inhibition of growth at 20 ppm [3] | pest or weed control at 200 ppm [4] | inhibition of growth at 20 ppm [5] | inhibition of growth at 20 ppm [7]

Cc1sc(N(C#N)c2cc(F)nc(F)c2)nc1C(=O)NC1CCC1 [I.a.23, 2-[cyano-(2,6-difluoro-4-pyridyl)amino]-N-cyclobutyl-5-methyl-thiazole-4-carboxamide]
≥ 80%: pest or weed control at 200 ppm [1] | pest or weed control at 200 ppm [2] | inhibition of growth at 20 ppm [3] | pest or weed control at 200 ppm [4] | inhibition of growth at 20 ppm [5]

Cc1sc(N(C#N)c2cc(F)nc(F)c2)nc1C(=O)NCC(C)(C)C [I.k.23, 2-[cyano-(2,6-difluoro-4-pyridyl)amino]-N-(2,2-dimethylpropyl)-5-methyl-thiazole-4-carboxamide]
≥ 80%: pest or weed control at 200 ppm [1] | pest or weed control at 200 ppm [2] | inhibition of growth at 20 ppm [3] | pest or weed control at 200 ppm [4] | inhibition of growth at 20 ppm [5] | inhibition of growth at 20 ppm [6] | inhibition of growth at 20 ppm [7]

CC1(C)CCC1NC(=O)c1nc(N(C#N)c2cc(F)nc(F)c2)sc1NC=O (stereo not shown) [I.b.25, 2-[cyano-(2,6-difluoro-4-pyridyl)amino]-N-(2,2-dimethylcyclobutyl)-5-formamido-thiazole-4-carboxamide]
≥ 80%: inhibition of growth at 20 ppm [3] | inhibition of growth at 20 ppm [5] | inhibition of growth at 20 ppm [7]

Cc1sc(N(C#N)c2cc(F)nc(F)c2)nc1C(=O)NCC1(CC2CC2)CC1 [I.f.23, 2-[cyano-(2,6-difluoro-4-pyridyl)amino]-N-[[1-(cyclopropylmethyl)cyclopropyl]methyl]-5-methyl-thiazole-4-carboxamide]
≥ 80%: pest or weed control at 200 ppm [2] | inhibition of growth at 20 ppm [3] | pest or weed control at 200 ppm [4] | inhibition of growth at 20 ppm [5] | inhibition of growth at 20 ppm [6] | inhibition of growth at 20 ppm [7]

Cc1sc(N(C#N)c2cc(F)nc(F)c2)nc1C(=O)NCc1ccccc1 [I.o.23, N-benzyl-2-[cyano-(2,6-difluoro-4-pyridyl)amino]-5-methyl-thiazole-4-carboxamide]
≥ 80%: pest or weed control at 200 ppm [2] | inhibition of growth at 20 ppm [3] | pest or weed control at 200 ppm [4] | inhibition of growth at 20 ppm [5] | inhibition of growth at 20 ppm [6] | inhibition of growth at 20 ppm [7]

CCCCCCNC(=O)c1nc(N(C#N)c2cc(F)nc(F)c2)sc1C [I.h.23, 2-[cyano-(2,6-difluoro-4-pyridyl)amino]-N-hexyl-5-methyl-thiazole-4-carboxamide]
≥ 80%: pest or weed control at 200 ppm [2] | inhibition of growth at 20 ppm [3] | pest or weed control at 200 ppm [4] | inhibition of growth at 20 ppm [5] | inhibition of growth at 20 ppm [6] | inhibition of growth at 20 ppm [7]

Cc1sc(N(C#N)c2cc(F)nc(F)c2)nc1C(=O)NC1(C)CCCC1 [I.g.23, 2-[cyano-(2,6-difluoro-4-pyridyl)amino]-5-methyl-N-(1-methylcyclopentyl)thiazole-4-carboxamide]
≥ 80%: pest or weed control at 200 ppm [1] | pest or weed control at 200 ppm [2] | inhibition of growth at 20 ppm [3] | pest or weed control at 200 ppm [4] | inhibition of growth at 20 ppm [5] | inhibition of growth at 20 ppm [6] | inhibition of growth at 20 ppm [7]

Cc1sc(N(C#N)c2cc(F)nc(F)c2)nc1C(=O)NC(C)c1ccccc1 (stereo not shown) [I.j.23, 2-[cyano-(2,6-difluoro-4-pyridyl)amino]-5-methyl-N-(1-phenylethyl)thiazole-4-carboxamide]
≥ 80%: pest or weed control at 200 ppm [2] | inhibition of growth at 20 ppm [3] | pest or weed control at 200 ppm [4] | inhibition of growth at 20 ppm [5] | inhibition of growth at 20 ppm [7]

CCCCNC(=O)c1nc(N(C#N)c2cc(F)nc(F)c2)sc1C [I.p.23, N-butyl-2-[cyano-(2,6-difluoro-4-pyridyl)amino]-5-methyl-thiazole-4-carboxamide]
≥ 80%: pest or weed control at 200 ppm [1] | pest or weed control at 200 ppm [2] | inhibition of growth at 20 ppm [3] | pest or weed control at 200 ppm [4] | inhibition of growth at 20 ppm [5] | inhibition of growth at 20 ppm [6] | inhibition of growth at 20 ppm [7]

Cc1sc(N(C#N)c2cc(F)nc(F)c2)nc1C(=O)NC1CCC12Cc1ccccc1C2 (stereo not shown) [I.d.23, 2-[cyano-(2,6-difluoro-4-pyridyl)amino]-5-methyl-N-spiro[cyclobutane-2,2′-indane]-1-yl-thiazole-4-carboxamide]
≥ 80%: pest or weed control at 200 ppm [1] | pest or weed control at 200 ppm [2] | inhibition of growth at 20 ppm [3] | pest or weed control at 200 ppm [4] | inhibition of growth at 20 ppm [5] | inhibition of growth at 20 ppm [6] | inhibition of growth at 20 ppm [7]
